From patent publication US20240376097A1, “BCL-2 Inhibitor” (BeiGene Ltd., priority 2020, published 2024)

How the values were obtained:
Type in all cases: binding
[1] = target: Recombinant human Bcl-2 protein (Homo sapiens (Human), UniProt P10415); test: Bcl-2 TR-FRET Assay; conditions: Bcl-2 wild type, TR-FRET; read-out: Biochemical assay (IC50, nM) Bcl-2 WT
Experimental: Biological Example: Bcl-2 TR-FRET Assay
Compounds disclosed herein were tested for blocking of Bcl-2 protein with its ligand in an assay based on Time-Resolved Fluorescence Resonance Energy Transfer (TR-FRET) methodology. Recombinant human 0.05 nM Bcl-2 protein was pre-incubated with a serial dilution of compounds disclosed herein (top final concentration is 1 uM or 0.1 uM or 0.02 uM or 0.01 uM, 10 points) at room temperature for 0.5 hour in an assay buffer containing 20 mM potassium phosphate buffer, pH 7.5, 50 mM NaCl. 1 mM EDTA, 0.05% Tween-20, 0.01% BSA. Then the FITC labeled Bak peptide Ac-GQVGRQLAIIGDK(FITC)INR-amide (0.5 nM) and MAb Anti 6His Tb cryptate Gold were added to plate and further incubated at room temperature for 1 hour. The TR-FRET signals (337 nm-520 nm-490 nm) were read on BMG PHERAstar FSX instrument. The inhibition percentage of Bcl-2 interaction with its ligand in presence of increasing concentrations of compounds was calculated based on the TR-FRET signals. The IC50 for each compound was derived from fitting the data to the four-parameter logistic equation by Graphpad Prism software or Dotmatics.

[2] = tested on: recombinant human Bcl-2-G101V protein; test: Bcl-2-G101V TR-FRET Assay; conditions: ratio of biochemical IC50 Bcl-2 G101V / Bcl-2 WT
Experimental: (§1) Biological Example: Bcl-2-G101V TR-FRET Assay
(§2) […]. The TR-FRET signals (ex337 nm, em490 nm/520 nm) were read on BMG PHERAstar FSX instrument. The inhibition percentage of Bcl-2-G101V interaction with its ligand in presence of increasing concentrations of compounds was calculated based on the ratio of fluorescence at 490 nm to that at 520 nm. The IC50 for each compound was derived from fitting the data to the four-parameter logistic equation by Graphpad Prism software or Dotmatics.

[3] = target: recombinant human Bcl-2-G101V protein (Homo sapiens (Human), UniProt P10415, G101V); test: Bcl-2-G101V TR-FRET Assay; conditions: Bcl-2 G101V mutant, TR-FRET; read-out: Biochemical assay (IC50, nM) Bcl-2 G101V
Experimental: as §1, §2

| Compound | IC50 [1] [nM] | Ratio of Bcl-2 G101V/WT [2] | IC50 [3] [nM] |
| --- | --- | --- | --- |
| COc1ccc(CN2CCN(C3CC4(CCN(c5ccc(C(=O)NS(=O)(=O)c6ccc(NC[C@H]7CC[C@](C)(O)CC7)c([N+](=O)[O-])c6)c(Oc6cnc7[nH]ccc7c6)c5)CC4)C3)C(c3ccccc3CC(C)C)C2)cc1 (stereo partly drawn) [Example 35, 2-((1H-pyrrolo[2,3-b]pyridin-5-yl)oxy)-N-((4-((((1r,4r)-4-hydroxy-4-methylcyclohexyl)methyl)amino)-3-nitrophenyl)sulfonyl)-4-(2-(2-(2-isobutylphenyl)-4-(4-methoxybenzyl)piperazin-1-yl)-7-azaspiro[3.5]nonan-7-yl) benzamide] | 2.2 | 74.1 | 163 |
| COc1ccc(CN2CCN(C3CC4(CCN(c5ccc(C(=O)NS(=O)(=O)c6ccc(NC[C@H]7CC[C@](C)(O)CC7)c([N+](=O)[O-])c6)c(Oc6cnc7[nH]ccc7c6)c5)CC4)C3)C(c3ccccc3C3CCCC3)C2)cc1 (stereo partly drawn) [Example 36, 2-((1H-pyrrolo[2,3-b]pyridin-5-yl)oxy)-4-(2-(2-(2-cyclopentylphenyl)-4-(4-methoxybenzyl)piperazin-1-yl)-7-azaspiro[3.5]nonan-7-yl)-N-((4-((((1r,4r)-4-hydroxy-4-methylcyclohexyl)methyl)amino)-3-nitrophenyl)sulfonyl)benzamide] | 0.58 | 27.6 | 16 |
| CC(C)c1ccccc1C1CN(Cc2cccc3c2CCCC3)CCN1C1CC2(CCN(c3ccc(C(=O)NS(=O)(=O)c4ccc(NC[C@H]5CC[C@](C)(O)CC5)c([N+](=O)[O-])c4)c(Oc4cnc5[nH]ccc5c4)c3)CC2)C1 (stereo partly drawn) [Example 55, 2-((1H-pyrrolo[2,3-b]pyridin-5-yl)oxy)-N-((4-((((1r,4r)-4-hydroxy-4-methylcyclohexyl)methyl)amino)-3-nitrophenyl)sulfonyl)-4-(2-(2-(2-isopropylphenyl)-4-((5,6,7,8-tetrahydronaphthalen-1-yl)methyl)piperazin-1-yl)-7-azaspiro[3.5]nonan-7-yl)benzamide] | 3.8 | 3.2 | 12 |
| CC(C)c1ccccc1C1CN(Cc2cccc3c2CCCC3)CCN1C1CC2(CCN(c3ccc(C(=O)NS(=O)(=O)c4ccc(NCC5CCOCC5)c([N+](=O)[O-])c4)c(Oc4cnc5[nH]ccc5c4)c3)CC2)C1 (stereo not drawn) [Example 56, 2-((1H-pyrrolo[2,3-b]pyridin-5-yl)oxy)-4-(2-(2-(2-isopropylphenyl)-4-((5,6,7,8-tetrahydronaphthalen-1-yl)methyl)piperazin-1-yl)-7-azaspiro[3.5]nonan-7-yl)-N-((3-nitro-4-(((tetrahydro-2H-pyran-4-yl)methyl)amino)phenyl)sulfonyl) benzamide] | 2.7 | 4.8 | 13 |
| CC#CC(c1ccccc1)N1CCN(C2CC3(CCN(c4ccc(C(=O)NS(=O)(=O)c5ccc(NC[C@H]6CC[C@](C)(O)CC6)c([N+](=O)[O-])c5)c(Oc5cnc6[nH]ccc6c5)c4)CC3)C2)C(c2ccccc2C(C)C)C1 (stereo partly drawn) [Example 63] | 1.4 | 14.3 | 20 |
| CC(C)c1ccccc1C1CN(Cc2ccc(Cl)c(Cl)c2)CCN1C1CC2(CCN(c3ccc(C(=O)NS(=O)(=O)c4ccc(NC[C@H]5CC[C@](C)(O)CC5)c([N+](=O)[O-])c4)c(Oc4cnc5[nH]ccc5c4)c3)CC2)C1 (stereo partly drawn) [Example 117, 2-((1H-pyrrolo[2,3-b]pyridin-5-yl)oxy)-4-(2-(4-(3,4-dichlorobenzyl)-2-(2-isopropylphenyl)piperazin-1-yl)-7-azaspiro[3.5]nonan-7-yl)-N-((4-((((1r,4r)-4-hydroxy-4-methylcyclohexyl)methyl)amino)-3-nitrophenyl)sulfonyl)benzamide] | 1.6 | 4.4 | 7.1 |
| CC(C)c1ccccc1C1CN(Cc2cccc3c2OC(F)(F)O3)CCN1C1CC2(CCN(c3ccc(C(=O)NS(=O)(=O)c4ccc(NC[C@H]5CC[C@](C)(O)CC5)c([N+](=O)[O-])c4)c(Oc4cnc5[nH]ccc5c4)c3)CC2)C1 (stereo partly drawn) [Example 129, 2-((1H-pyrrolo[2,3-b]pyridin-5-yl)oxy)-4-(2-(4-((2,2-difluorobenzo [d][1,3]dioxol-4-yl)methyl)-2-(2-isopropylphenyl)piperazin-1-yl)-7-azaspiro[3.5]nonan-7-yl)-N-((4-((((1r,4r)-4-hydroxy-4-methylcyclohexyl)methyl)amino)-3-nitrophenyl)sulfonyl)benzamide] | 1.8 | 4.4 | 7.8 |
| COc1ccc(N2CCCC(N3CCN(C4CC5(CCN(c6ccc(C(=O)NS(=O)(=O)c7ccc(NC[C@H]8CC[C@](C)(O)CC8)c([N+](=O)[O-])c7)c(Oc7cnc8[nH]ccc8c7)c6)CC5)C4)C(c4ccccc4C(C)C)C3)C2)cc1 (stereo partly drawn) [Example 139, 2-((1H-pyrrolo[2,3-b]pyridin-5-yl)oxy)-N-((4-((((1r,4r)-4-hydroxy-4-methylcyclohexyl)methyl)amino)-3-nitrophenyl)sulfonyl)-4-(2-(2-(2-isopropylphenyl)-4-(1-(4-methoxyphenyl)piperidin-3-yl)piperazin-1-yl)-7-azaspiro[3.5]nonan-7-yl)benzamide] | 0.65 | 8.7 | 5.6 |
| COc1cc(CN2CCN(C3CC4(CCN(c5ccc(C(=O)NS(=O)(=O)c6ccc(NC[C@H]7CC[C@](C)(O)CC7)c([N+](=O)[O-])c6)c(Oc6cnc7[nH]ccc7c6)c5)CC4)C3)C(c3ccccc3C(C)C)C2)cc(C(F)(F)F)c1 (stereo partly drawn) [Example 227, 2-((1H-pyrrolo[2,3-b]pyridin-5-yl)oxy)-N-((4-((((1r,4r)-4-hydroxy-4-methylcyclohexyl)methyl)amino)-3-nitrophenyl)sulfonyl)-4-(2-(2-(2-isopropylphenyl)-4-(3-methoxy-5-(trifluoromethyl)benzyl)piperazin-1-yl)-7-azaspiro[3.5]nonan-7-yl) benzamide] | 2 | 3.2 | 6.4 |
| COc1ccc(CN2CCN(C3CC4(CCN(c5ccc(C(=O)NS(=O)(=O)c6ccc(NC[C@H]7CC[C@](C)(O)CC7)c([N+](=O)[O-])c6)c(Oc6cnc7[nH]ccc7c6)c5)CC4)C3)C(c3cc(Cl)ccc3C(C)C)C2)cc1 (stereo partly drawn) [Example 247, 2-((1H-pyrrolo[2,3-b]pyridin-5-yl)oxy)-4-(2-(2-(5-chloro-2-isopropylphenyl)-4-(4-methoxybenzyl)piperazin-1-yl)-7-azaspiro[3.5]nonan-7-yl)-N-((4-((((1r,4r)-4-hydroxy-4-methylcyclohexyl)methyl)amino)-3-nitrophenyl)sulfonyl)benzamide] | 0.8 | 4.2 | 3.3 |
| COc1cc(CN2CCN(C3CC4(CCN(c5ccc(C(=O)NS(=O)(=O)c6ccc(NC[C@H]7CC[C@](C)(O)CC7)c([N+](=O)[O-])c6)c(Oc6cnc7[nH]cc(F)c7c6)c5)CC4)C3)[C@H](c3ccccc3C(C)C)C2)ccc1C(F)(F)F [Example 279] | 2 | 3.2 | 6.3 |
| COc1cc(CN2CCN(C3CC4(C3)CN(c3ccc(C(=O)NS(=O)(=O)c5ccc(NC[C@H]6CC[C@](C)(O)CC6)c([N+](=O)[O-])c5)c(Oc5cnc6[nH]cc(F)c6c5)c3)C4)[C@H](c3ccccc3C(C)C)C2)ccc1C(F)(F)F [Example 289, 2-((3-fluoro-1H-pyrrolo[2,3-b]pyridin-5-yl)oxy)-N-((4-((((1r,4r)-4-hydroxy-4-methylcyclohexyl)methyl)amino)-3-nitrophenyl)sulfonyl)-4-(6-((R)-2-(2-isopropylphenyl)-4-(3-methoxy-4-(trifluoromethyl)benzyl)piperazin-1-yl)-2-azaspiro[3.3]heptan-2-yl) benzamide] | 1.7 | 2.3 | 4 |
| COc1cc(CN2CCN(C3CC4(CCN(c5ccc(C(=O)NS(=O)(=O)c6ccc(NC[C@H]7CC[C@](C)(O)CC7)c([N+](=O)[O-])c6)c(Oc6cnc7[nH]ccc7c6)c5)CC4)C3)[C@H](c3ccccc3C(C)C)C2)ccc1CC(C)C [Example 293] | 3.2 | 3.4 | 11 |
| COc1cc(CN2CCN(C3CC4(CCN(c5ccc(C(=O)NS(=O)(=O)c6ccc(NC[C@H]7CC[C@](C)(O)CC7)c([N+](=O)[O-])c6)c(Oc6cnc7[nH]ccc7c6)c5)CC4)C3)[C@H](c3ccccc3C(C)C)C2)ccc1C1CCCC1 [Example 294, 2-((1H-pyrrolo[2,3-b]pyridin-5-yl)oxy)-4-(2-((R)-4-(4-cyclopentyl-3-methoxybenzyl)-2-(2-isopropylphenyl)piperazin-1-yl)-7-azaspiro[3.5]nonan-7-yl)-N-((4-((((1r,4r)-4-hydroxy-4-methylcyclohexyl)methyl)amino)-3-nitrophenyl)sulfonyl)benzamide] | 3.2 | 3.2 | 10 |
